# According to patent publication US20250243488A1, “METHODS OF MODULATING PROGRANULIN EXPRESSION USING ANTISENSE OLIGONUCLEOTIDES TARGETING REGULATORY RNAS” (Camp4 Therapeutics Corporation, priority 2022, published 2025):
# Oligonucleotides are written 5' to 3', each unit as a sugar letter and its base; * is a phosphorothioate linkage, no mark a phosphodiester; rarer units and linkages stand in square brackets, end groups in braces. Plain capitals give the bases only. e = 2'-O-(2-methoxyethyl) (MOE); l = locked nucleic acid (LNA); [5mC] = 5-methylcytosine; d = 2'-deoxy (DNA)
# How the values were obtained:
# [1] = system: mGrn mRNA; assay: mGrn mRNA qPCR in Neuro2a cells transfected with ASOs; type: cell-based, mouse; settings: Table 14; Neuro2a, 100 nM, 48 hours; normalized to sNTC3
# Method: 57 ASOs targeting the Grn promoter (− strand) were screened in Neuro2a cells. Neuro2a cells were transfected with 100 nM of each of the ASOs listed in Table 14 and cells were harvested 48 hours later for Grn mRNA quantification using qPCR. Housekeeping genes for normalization were Gapdh and Ppia. Relative Grn mRNA levels were normalized to mRNA extracted from cells treated with sNTC3 (steric nontargeting control).
# Next, 26 ASOs based on parent ASOs CO-3544 and CO-3595 were designed with different modifications and base walking. Neuro2a cells were transfected with either […] or 160 nM of each of the ASOs listed in Table 15, and cells were harvested 48 hours later for mGrn mRNA quantification using qPCR. As controls, cells were treated with sNTC3 or no ASO. Housekeeping genes for normalization were Gapdh and Ppia. Relative Grn mRNA levels were normalized to mRNA extracted from cells treated with sNTC3.
# CO-3544 was modified to include PO/PS bonds and the efficacy in upregulating mGrn mRNA was determined.
# Similarly, CO-3595 was modified to include varying PO/PS internucleotide bonds and the efficacy of these ASOs in upregulating mGrn mRNA was determined in Neuro2A cells.
# [2] = system: GRN mRNA; assay: GRN mRNA qPCR in SK-N-AS cells transfected with ASOs; type: cell-based, human; settings: SK-N-AS; for 120 nM FC (GRN mRNA) / hGRN mRNA FC: 120 nM
# In short: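 Fold change in GRN mRNA, by qPCR with GAPDH/PPIA housekeeping normalization, referenced to steric non-targeting control ASO(s) such as CO-1589. ASOs were transfected into SK-N-AS neuroblastoma cells in dose titrations (20 to 160 nM initially). Cells were harvested 48 hours post-transfection.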
# [3] = Table 12, normalized to CO-1589
# [4] = Table 9, 48 hours post-transfection, normalized to CO-1589
# [5] = Table 13, normalized to CO-1589
# [6] = Table 11, 48 hours, normalized to CO-1589
# [7] = Table 10, 48 hours, normalized to CO-1589
# [8] = Table 6, normalized to CO-3772, CO-1589 and CO-1929
substance,measurement,setting,value
CO-3598: ASO targeting the Grn promoter (− strand) (antisense eT*eA*eA*eG*eA*eA*eG*e[5mC]*e[5mC]*e[5mC]*eT*e[5mC]*eA*e[5mC]*eG*eG*eA*eA*eT*eT),mGRN mRNA FC,[1],1.3 FC
CO-3573: ASO targeting the Grn promoter (− strand) (antisense eG*eT*e[5mC]*eT*e[5mC]*eA*eT*e[5mC]*eT*e[5mC]*eT*eG*e[5mC]*eA*eA*e[5mC]*eA*e[5mC]*eT*e[5mC]),mGRN mRNA FC,[1],1.4 FC
CO-6516: ASO based on parent ASO CO-3462 (antisense eT*eA*eGeGeAeGeAeAeTe[5mC]eGe[5mC]eTeTeT*eG*eG*eG*eA*eG),30 nM FC (GRN mRNA),[2]; [3],1.0 FC
same,60 nM FC (GRN mRNA),[2]; [3],1.4 FC
same,120 nM FC (GRN mRNA),[2]; [3],1.0 FC
CO-6380: ASO based on parent ASO CO-3462 (antisense eA*eA*eA*eA*e[5mC]*eA*eA*eA*e[5mC]*eA*e[5mC]*eA*e[5mC]*eA*eA*eG*eT*e[5mC]*e[5mC]*eG),30 nM FC (GRN mRNA),[2]; [3],0.8 FC
same,60 nM FC (GRN mRNA),[2]; [3],0.8 FC
same,120 nM FC (GRN mRNA),[2]; [3],0.8 FC
CO-4620: ASO designed to target intergenic enhancers (eRNA) (antisense eG*eT*e[5mC]*e[5mC]*eA*eG*e[5mC]*eA*e[5mC]*eG*e[5mC]*eT*e[5mC]*eT*e[5mC]*eA*eG*e[5mC]*eA*e[5mC]),hGRN mRNA FC,[2]; [4],1.0 FC
CO-6421: ASO based on parent ASOs CO-4363 and CO-4364 (eG*eG*eA*e[5mC]*eT*lT*eG*eG*eG*eA*eG*lT*eG*eG*eT*eG*eA*l[5mC]*eT*eG*eA*eA*e[5mC]),30 nM FC (GRN mRNA),[2]; [5],1.3 FC
same,60 nM FC (GRN mRNA),[2]; [5],2.1 FC
same,120 nM FC (GRN mRNA),[2]; [5],1.7 FC
CO-6408: ASO based on parent ASO CO-3462 (antisense eT*eA*eG*eGeAeGeA*eA*eT*e[5mC]*eG*e[5mC]*eT*eTeTeGeG*eG*eA*eG),30 nM FC (GRN mRNA),[2]; [3],1.0 FC
same,60 nM FC (GRN mRNA),[2]; [3],1.1 FC
same,120 nM FC (GRN mRNA),[2]; [3],1.5 FC
CO-6440: ASO designed to target an intragenic enhancer RNA (eRNA) (eG*eT*eT*e[5mC]*eA*eT*eG*e[5mC]*eT*eA*e[5mC]*e[5mC]*e[5mC]*e[5mC]*e[5mC]*eT*eA*eG*eT*eG),hGRN mRNA FC,[2]; [6],1.0 FC
CO-4634: ASO designed to target intergenic enhancers (eRNA) (antisense eT*eT*eT*eA*e[5mC]*e[5mC]*e[5mC]*eA*eT*eA*eT*eA*e[5mC]*e[5mC]*e[5mC]*eA*e[5mC]*eA*e[5mC]*e[5mC]),hGRN mRNA FC,[2]; [4],1.1 FC
CO-6390: ASO based on parent ASO CO-3462 (antisense eT*eA*eG*eG*lA*dG*dA*dA*lT*d[5mC]*dG*d[5mC]*lT*dT*dT*eG*lG*eG*eA*eG),30 nM FC (GRN mRNA),[2]; [3],1.3 FC
same,60 nM FC (GRN mRNA),[2]; [3],1.3 FC
same,120 nM FC (GRN mRNA),[2]; [3],1.5 FC
CO-6422: ASO based on parent ASOs CO-4363 and CO-4364 (eG*eG*eA*l[5mC]*eT*eT*eG*lG*eG*eA*eG*lT*eG*eG*eT*lG*eA*e[5mC]*eT*lG*eA*eA*e[5mC]),30 nM FC (GRN mRNA),[2]; [5],1.9 FC
same,60 nM FC (GRN mRNA),[2]; [5],2.0 FC
same,120 nM FC (GRN mRNA),[2]; [5],2.1 FC
CO-4606: ASO designed to target intergenic enhancers (eRNA) (antisense eA*e[5mC]*eG*eT*eG*eA*eA*eG*eA*eG*e[5mC]*e[5mC]*eG*eG*eA*eG*eA*eT*eT*e[5mC]),hGRN mRNA FC,[2]; [4],1.4 FC
same,3.75 nM FC (GRN mRNA),"[2]; Table 10, 3.75 nM, 48 hours, normalized to CO-1589",1.1 FC
same,7.5 nM FC (GRN mRNA),"[2]; Table 10, 7.5 nM, 48 hours, normalized to CO-1589",1.1 FC
same,15 nM FC (GRN mRNA),"[2]; Table 10, 15 nM, 48 hours, normalized to CO-1589",1.2 FC
same,30 nM FC (GRN mRNA),[2]; [7],1.3 FC
same,60 nM FC (GRN mRNA),[2]; [7],1.4 FC
same,120 nM FC (GRN mRNA),[2]; [7],1.7 FC
CO-6515: ASO based on parent ASO CO-3462 (antisense eT*eA*eGeGeAeGeAeAeTe[5mC]eGe[5mC]eT*eT*eT*eG*eG*eG*eA*eG),30 nM FC (GRN mRNA),[2]; [3],1.2 FC
same,60 nM FC (GRN mRNA),[2]; [3],1.8 FC
same,120 nM FC (GRN mRNA),[2]; [3],1.7 FC
CO-4599: ASO designed to target intergenic enhancers (eRNA) (antisense eG*eG*e[5mC]*e[5mC]*eA*eA*e[5mC]*eT*eA*eT*e[5mC]*eA*eG*e[5mC]*eT*eT*eT*e[5mC]*e[5mC]*e[5mC]),hGRN mRNA FC,[2]; [4],1.0 FC
CO-6452: ASO designed to target an intragenic enhancer RNA (eRNA) (eT*eG*eG*e[5mC]*eT*eG*e[5mC]*e[5mC]*e[5mC]*e[5mC]*eT*e[5mC]*eA*e[5mC]*eG*eT*eT*eT*eG*e[5mC]),hGRN mRNA FC,[2]; [6],1.4 FC
CO-4632: ASO designed to target intergenic enhancers (eRNA) (antisense eT*eG*e[5mC]*eT*eA*eT*eG*e[5mC]*eA*eT*eT*eG*eA*eG*eT*eT*eT*eT*e[5mC]*e[5mC]),hGRN mRNA FC,[2]; [4],1.1 FC
CO-4587: ASO designed to target intergenic enhancers (eRNA) (antisense eT*eT*e[5mC]*eT*eA*eA*eA*e[5mC]*eG*e[5mC]*eG*eA*eA*eG*eT*eG*eG*eG*eT*eG),hGRN mRNA FC,[2]; [4],1.2 FC
CO-6446: ASO designed to target an intragenic enhancer RNA (eRNA) (eT*eG*e[5mC]*eT*eG*eT*eG*eA*eG*e[5mC]*eT*eG*e[5mC]*e[5mC]*e[5mC]*eA*eG*eT*eG*eG),hGRN mRNA FC,[2]; [6],1.1 FC
CO-6427: ASO based on parent ASOs CO-4363 and CO-4364 (eG*eG*eG*eA*e[5mC]*eT*eT*eG*eG*eG*eA*eG*eT*eG*eG*eT*eG*eA*e[5mC]*eT*eG*eA*eA*e[5mC]*e[5mC]),30 nM FC (GRN mRNA),[2]; [5],1.2 FC
same,60 nM FC (GRN mRNA),[2]; [5],1.1 FC
same,120 nM FC (GRN mRNA),[2]; [5],1.2 FC
CO-4624: ASO designed to target intergenic enhancers (eRNA) (antisense eG*eT*e[5mC]*eA*eG*eA*e[5mC]*eT*eG*eT*e[5mC]*e[5mC]*eT*eA*e[5mC]*eA*e[5mC]*e[5mC]*eT*eT),hGRN mRNA FC,[2]; [4],1.3 FC
CO-4638: ASO designed to target intergenic enhancers (eRNA) (antisense eT*eT*eG*eA*eT*eA*eG*eA*eT*eG*eG*e[5mC]*eA*eG*eG*eT*e[5mC]*eA*eG*eG),hGRN mRNA FC,[2]; [4],1.0 FC
CO-4650: ASO designed to target intergenic enhancers (eRNA) (antisense eT*eA*eA*eG*eA*e[5mC]*eT*eT*eT*e[5mC]*e[5mC]*eA*eG*e[5mC]*eA*eT*eG*eT*e[5mC]*e[5mC]),hGRN mRNA FC,[2]; [4],1.1 FC
CO-4456: mixed PO/PS bond version of CO-3431 (antisense eA*eT*eTeGe[5mC]eAeG*eT*eG*eA*e[5mC]*eG*e[5mC]*e[5mC]e[5mC]e[5mC]eGeT*eT*eA),30 nM FC (GRN mRNA),[2]; [8],0.7 FC
same,60 nM FC (GRN mRNA),[2]; [8],0.5 FC
same,120 nM FC (GRN mRNA),[2]; [8],0.4 FC
CO-6384: ASO based on parent ASO CO-3462 (antisense eG*eT*eA*eG*eG*eA*eG*eA*eA*eT*e[5mC]*eG*e[5mC]*eT*eT*eT*eG*eG*eG*eA),30 nM FC (GRN mRNA),[2]; [3],1.0 FC
same,60 nM FC (GRN mRNA),[2]; [3],1.0 FC
same,120 nM FC (GRN mRNA),[2]; [3],1.5 FC
CO-4605: ASO designed to target intergenic enhancers (eRNA) (antisense e[5mC]*eG*eG*eG*eA*eG*eA*e[5mC]*eA*eG*eG*eA*eA*eG*eG*e[5mC]*eT*eT*eA*eA),hGRN mRNA FC,[2]; [4],1.2 FC
CO-6391: ASO based on parent ASO CO-3462 (antisense eT*eA*eG*eG*eA*lG*eA*eA*lT*e[5mC]*eG*l[5mC]*eT*eT*lT*eG*eG*eG*eA*eG),30 nM FC (GRN mRNA),[2]; [3],1.3 FC
same,60 nM FC (GRN mRNA),[2]; [3],1.0 FC
same,120 nM FC (GRN mRNA),[2]; [3],1.6 FC
CO-6518: ASO based on parent ASO CO-3462 (antisense eT*eA*eG*eGeAeGeAeAeTe[5mC]eGe[5mC]eTeTeTeGeGeG*eA*eG),30 nM FC (GRN mRNA),[2]; [3],1.2 FC
same,60 nM FC (GRN mRNA),[2]; [3],1.3 FC
same,120 nM FC (GRN mRNA),[2]; [3],0.9 FC
